The text below walks through data of paper PMC9045277, “Quercetin Reduces the Virulence of S. aureus by Targeting ClpP to Protect Mice from MRSA-Induced Lethal Pneumonia” (Microbiology Spectrum, 2022).

Converted amounts (≈) assume the structure as drawn.

In test [1] the target is T1, ClpP (Staphylococcus aureus, UniProt Q2G036).
T1 construct: pET28a-clpP, purified from E. coli BL21(DE3)
The test can be described thus: ClpP peptidase assay with fluorescent substrate Suc-LY-AMC (positive-control inhibitor). It counts as biochemical.

The target in test [2] is T1, ClpP. The test can be described thus: LSPR (OpenSPR) with immobilized ClpP; supported by TSA, CETSA in lysate, and Suc-LY-AMC inhibition (IC50 […]). It counts as binding.
The test system of a further test is T2, S. aureus USA300 (MRSA).
T2 construct: USA300
Nature of the test: microbe, parasite or virus in culture. Further details: MIC, growth inhibition of MRSA USA300. To be noted: Staphylococcus aureus, read-out: MIC (μg/mL).

Test [3] concerns the target T1, ClpP. The test can be described thus: biochemical. The following applies: read-out: Relative inhibition rate (%).
Description: This property was exploited to screen the available laboratory library of small molecules for ClpP inhibitors. First, 10 μM ClpP and 64 μg/mL of the small molecule compound were added to a black opaque 96-well plate containing 100 μL of ClpP buffer (100 mM HEPES,100 mM NaCl) and incubated for 1 h at room temperature. Afterward, 100 μM Suc-LeuTyr-AMC (Cat number S1153, Sigma-Aldrich, St. Louis, MO, USA) was added to 96-well plates and incubated for 30 min at 32°C. Finally, the fluorescence values were detected by Infinite M200 (360 nm excitation/465 nm emission). […] Since the fluorescent substrate Suc-LY-AMC can be used to detect the activity of ClpP protein, we screened a library of natural products available in our laboratory.
The target in test [4] is T3, 6×His-ClpX protein of S. aureus (S. aureus, UniProt Q2FXQ7 1-420).
T3 construct: source: E. coli, purified
T3 sequence (Q2FXQ7 whole entry): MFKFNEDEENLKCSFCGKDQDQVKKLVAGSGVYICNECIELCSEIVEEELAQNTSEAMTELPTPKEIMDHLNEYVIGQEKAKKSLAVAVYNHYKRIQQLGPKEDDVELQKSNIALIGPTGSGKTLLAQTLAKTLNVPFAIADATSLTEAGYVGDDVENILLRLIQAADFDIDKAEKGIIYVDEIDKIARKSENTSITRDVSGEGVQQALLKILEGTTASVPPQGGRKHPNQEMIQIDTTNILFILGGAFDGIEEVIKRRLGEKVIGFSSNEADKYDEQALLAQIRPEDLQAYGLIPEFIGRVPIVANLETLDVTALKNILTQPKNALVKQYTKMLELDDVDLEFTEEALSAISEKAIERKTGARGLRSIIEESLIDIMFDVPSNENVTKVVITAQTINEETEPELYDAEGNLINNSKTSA
Nature of the test: pull-down; 6×His-ClpX and label-free ClpP mixed with 2 mM ATPγS (with DMSO, quercetin or ADEP4), overnight at 4°C; passed through Ni-NTA, washed with binding buffer (40 mM Tris, 200 mM NaCl, pH 8.5), eluted with 400 mM imidazole; SDS-PAGE. The following applies: both partners purified.
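For Relative inhibition rate (%) in this document: ClpP peptidase activity measured as fluorescence (ex 360 nm, em 465 nm) from cleavage of Suc-LY-AMC substrate at 100 µM, 30 min at 32°C.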

On to `O=c1c(O)c(-c2cc(O)c(O)c(O)c2)oc2cc(O)cc(O)c12` [myricetin], for which the “ClpP peptidase assay with fluorescent substrate Suc-LY-AMC (positive-control inh)” value on ClpP [1] was “the inhibitory ability of quercetin and the positive-control myricetin on ClpP activity were the closest”. In turn, `O=c1c(O)c(-c2ccc(O)c(O)c2)oc2cc(O)cc(O)c12` [quercetin] returned a Kd at ClpP [2] of 197 nM. The MIC in the test on S. aureus USA300 (MRSA) came out at 128 µg/mL (≈ 424 µM). For the same molecule, the inhibition at 64 µg/mL on ClpP [3] was found to be 74.3 ± 2.67%.

B1: Caseinolytic peptidase P (ClpP) of S. aureus, label-free (His tag excised) (enzyme)
chain: MNLIPTVIETTNRGERAYDIYSRLLKDRIIMLGSQIDDNVANSIVSQLLFLQAQDSEKDIYLYINSPGGSVTAGFAIYDTIQHIKPDVQTICIGMAASMGSFLLAAGAKGKRFALPNAEVMIHQPLGGAQGQATEIEIAANHILKTREKLNRILSERTGQSIEKIQKDTDRDNFLTAEEAKEYGLIDEVMVPETK
notes: also called casein hydrolase P; label-free ClpP protein; source: E. coli BL21 (DE3), pET28a-clpP, purified (His-Trap); copies: 14
Consider B1, for which, in test [4], the binding result is reported as “binds”.
